From ChEMBL document CHEMBL1201862, “PubChem BioAssay data set” (2004)
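Interpolation was linear, between the two tested concentrations surrounding the appropriate level; five concentrations were tested over 48 hours in 96-well plates. GI50 marks 50% less growth.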 Active and inactive are the calls of the source. Cut-off read from the data, not from the text of the source: active = GI50 up to about 1.1 µM and inactive = higher.

Assays:
Assay in all cases: growth of human tumour cells (NCI), 48 h
KM12 = system: KM12
MCF7 = system: MCF7
M14 = system: M14
TK-10 = system: TK-10
SW-620 = system: SW-620
Malme-3M = system: Malme-3M
SN12C = system: SN12C
A498 = system: A498
PC-3 = system: PC-3
NCI/ADR-RES = system: NCI/ADR-RES
SK-OV-3 = system: SK-OV-3
UO-31 = system: UO-31
HCT-116 = system: HCT-116
ACHN = system: ACHN
SK-MEL-28 = system: SK-MEL-28
HCT-15 = system: HCT-15
HL-60 = system: HL-60
T47D = system: T47D
CCRF-CEM = system: CCRF-CEM

Row | SMILES | GI50 (KM12) | GI50 (MCF7) | GI50 (M14) | GI50 (TK-10) | GI50 (SW-620) | GI50 (Malme-3M) | GI50 (SN12C) | GI50 (A498) | GI50 (PC-3) | GI50 (NCI/ADR-RES) | GI50 (SK-OV-3) | GI50 (UO-31) | GI50 (HCT-116) | GI50 (ACHN) | GI50 (SK-MEL-28) | GI50 (HCT-15) [µM] | GI50 (HL-60) | GI50 (T47D) | GI50 (CCRF-CEM)
1 | NCCC(=O)N[C@H](Cc1cc(O)c(O)c(SCC(NC(=O)CC[C@H](N)C(=O)O)C(=O)NCC(=O)O)c1)C(=O)O (some centres undefined) | > 50 µM (inactive) | > 50 µM (inactive) | > 50 µM (inactive) | > 50 µM (inactive) | > 50 µM (inactive) | > 50 µM (inactive) | > 50 µM (inactive) | > 50 µM (inactive) | > 50 µM (inactive) | > 50 µM (inactive) | > 50 µM (inactive) | > 50 µM (inactive) | > 50 µM (inactive) | > 50 µM (inactive) | > 50 µM (inactive) | > 50 |  |  | 
2 | O=C1NC(=N/c2ccccc2)/C(=N\c2ccccc2)N1c1ccccc1 | 15.6 µM (inactive) |  |  | 16.9 µM (inactive) | 16.5 µM (inactive) | 17.4 µM (inactive) | 16.4 µM (inactive) | 17.2 µM (inactive) | 14.5 µM (inactive) | 15.5 µM (inactive) | 17.6 µM (inactive) | 16.5 µM (inactive) | 17.7 µM (inactive) | 16.9 µM (inactive) | 14.8 µM (inactive) | 14.5 | 26.2 µM (inactive) | 15.1 µM (inactive) | 30.3 µM (inactive)
3 | COc1cc2c(cc1OC)C1CN3CCCC3C(O)C1c1cc(OC)c(OC)cc1-2 (centres undefined) | > 100 µM (inactive) | > 100 µM (inactive) | > 100 µM (inactive) | > 100 µM (inactive) | > 100 µM (inactive) | > 100 µM (inactive) | > 100 µM (inactive) | > 100 µM (inactive) |  | > 100 µM (inactive) | > 100 µM (inactive) | > 100 µM (inactive) | > 100 µM (inactive) | > 100 µM (inactive) | > 100 µM (inactive) | > 100 | > 100 µM (inactive) | 15.3 µM (inactive) | 69.3 µM (inactive)
4 | COc1ccccc1Cn1c2c(c3cc(O)ccc31)C(=O)c1ccccc1C2=O | 70.6 µM (inactive) | 10.1 µM (inactive) | > 100 µM (inactive) | 72.8 µM (inactive) | 79.4 µM (inactive) | > 100 µM (inactive) | 22.8 µM (inactive) | 93.8 µM (inactive) | 8.49 µM (inactive) | 11.3 µM (inactive) | 2.42 µM (inactive) | 48 µM (inactive) | 23.8 µM (inactive) |  | 76.4 µM (inactive) | 90.2 | > 100 µM (inactive) |  | 37.5 µM (inactive)
5 | COC(=O)CCCC(=O)NC1=C(NCc2ccccc2)C(=O)c2ccccc2C1=O | 53.7 µM (inactive) | 30.3 µM (inactive) | 29.6 µM (inactive) | > 100 µM (inactive) | 60.8 µM (inactive) | 15.5 µM (inactive) | 52.5 µM (inactive) | > 100 µM (inactive) |  | 27.3 µM (inactive) | 45.5 µM (inactive) | > 100 µM (inactive) | 32.1 µM (inactive) | 73.8 µM (inactive) | > 100 µM (inactive) | 52.4 | 29 µM (inactive) | 59.3 µM (inactive) | 36.3 µM (inactive)
6 | COc1ccc(Cn2c(C)nc3c2C(=O)c2ccccc2C3=O)cc1 | 5.31 µM (inactive) |  | 11.6 µM (inactive) | 11 µM (inactive) | 8.07 µM (inactive) | 9.46 µM (inactive) | 13.9 µM (inactive) |  |  |  | 14.8 µM (inactive) | 10.5 µM (inactive) | 3.74 µM (inactive) | 10.3 µM (inactive) | 21 µM (inactive) | 1.72 | 4.17 µM (inactive) |  | 4.05 µM (inactive)
7 | O=C(Oc1c(Br)cc(Br)cc1C(=O)Oc1ccccc1)C(=O)Oc1c(Br)cc(Br)cc1C(=O)Oc1ccccc1 | 24 µM (inactive) | 26.7 µM (inactive) | 34.1 µM (inactive) | 49.2 µM (inactive) | 19.8 µM (inactive) | 20.9 µM (inactive) | 30.3 µM (inactive) |  | 20.2 µM (inactive) | 38.9 µM (inactive) | 33.8 µM (inactive) | 16 µM (inactive) | 14.4 µM (inactive) | 27.7 µM (inactive) | 28.7 µM (inactive) | 20.7 | < 0.01 µM (active) | 27.1 µM (inactive) | 
8 | CC(=O)CCC1(C(=O)OCC(C)C)CCCC1=O (centres undefined) | > 100 µM (inactive) |  | > 100 µM (inactive) | > 100 µM (inactive) | > 100 µM (inactive) | > 100 µM (inactive) | > 100 µM (inactive) |  | > 100 µM (inactive) | > 100 µM (inactive) | > 100 µM (inactive) | > 100 µM (inactive) | > 100 µM (inactive) | > 100 µM (inactive) | > 100 µM (inactive) | > 100 | > 100 µM (inactive) | > 100 µM (inactive) | > 100 µM (inactive)
9 | COc1cc(/C=C2\CCC(C)C3=C2NC(=S)NC3c2cc(OC)c(OC)c(OC)c2)cc(OC)c1OC (centres undefined) | 32.3 µM (inactive) | 35.7 µM (inactive) | 60.3 µM (inactive) | 70.6 µM (inactive) | 96.2 µM (inactive) |  | 68.4 µM (inactive) | 53 µM (inactive) | 37.7 µM (inactive) |  | > 100 µM (inactive) | 15.8 µM (inactive) | 49 µM (inactive) | 92.7 µM (inactive) | 30.4 µM (inactive) | 47.4 | 12.5 µM (inactive) |  | 25.2 µM (inactive)
10 | CSC(SC)=C1C(=O)NN=C1C | > 100 µM (inactive) | > 100 µM (inactive) | > 100 µM (inactive) | > 100 µM (inactive) | > 100 µM (inactive) | > 100 µM (inactive) | > 100 µM (inactive) |  | > 100 µM (inactive) |  | > 100 µM (inactive) | > 100 µM (inactive) | > 100 µM (inactive) | > 100 µM (inactive) | > 100 µM (inactive) | > 100 | > 100 µM (inactive) | > 100 µM (inactive) | > 100 µM (inactive)
11 | CC(=S)NNC(=O)c1ccncc1 | > 100 µM (inactive) |  | > 100 µM (inactive) | > 100 µM (inactive) | > 100 µM (inactive) | > 100 µM (inactive) | > 100 µM (inactive) | > 100 µM (inactive) |  |  | > 100 µM (inactive) | > 100 µM (inactive) | > 100 µM (inactive) | > 100 µM (inactive) | > 100 µM (inactive) | > 100 | > 100 µM (inactive) |  | > 100 µM (inactive)
12 | CC1C2CC(CC(=O)N2)C1(C)C (centres undefined) | > 100 µM (inactive) | > 100 µM (inactive) | > 100 µM (inactive) | > 100 µM (inactive) | > 100 µM (inactive) | > 100 µM (inactive) | > 100 µM (inactive) | > 100 µM (inactive) | > 100 µM (inactive) |  | > 100 µM (inactive) | > 100 µM (inactive) | > 100 µM (inactive) | > 100 µM (inactive) | > 100 µM (inactive) |  | > 100 µM (inactive) | > 100 µM (inactive) | > 100 µM (inactive)
13 | N#Cc1c(-c2ccccc2)cc(Nc2cccc(C(F)(F)F)c2)n2c1nc1ccccc12 | 2.17 µM (inactive) |  |  | 2.56 µM (inactive) | 3.05 µM (inactive) | 1.27 µM (inactive) | 0.519 µM (active) | 1.64 µM (inactive) |  | 1.33 µM (inactive) | 1.11 µM (active) |  | 0.471 µM (active) | 1.88 µM (inactive) | 9.12 µM (inactive) | 1.38 |  | 0.764 µM (active) | 
14 | Cc1ccc2c(c1)C(=O)/C(=C1/CCc3ccc(C)cc31)C2 | > 100 µM (inactive) | > 100 µM (inactive) | > 100 µM (inactive) | > 100 µM (inactive) | > 100 µM (inactive) | > 100 µM (inactive) | > 100 µM (inactive) | > 100 µM (inactive) |  | > 100 µM (inactive) | > 100 µM (inactive) | > 100 µM (inactive) | 59 µM (inactive) | > 100 µM (inactive) | > 100 µM (inactive) | > 100 | > 100 µM (inactive) | 14.7 µM (inactive) | 86.5 µM (inactive)
15 | NNC(=O)c1nnn(N)c1S | 13.5 µM (inactive) |  | > 100 µM (inactive) | > 100 µM (inactive) | > 100 µM (inactive) | > 100 µM (inactive) | > 100 µM (inactive) | > 100 µM (inactive) | > 100 µM (inactive) | > 100 µM (inactive) | > 100 µM (inactive) | > 100 µM (inactive) | > 100 µM (inactive) | > 100 µM (inactive) | > 100 µM (inactive) | > 100 | 1 µM (active) | > 100 µM (inactive) | 66.1 µM (inactive)
16 | NC(Cc1ccc(B(O)O)cc1)C(=O)NC(CO)CO (centres undefined) | > 100 µM (inactive) |  | > 100 µM (inactive) | > 100 µM (inactive) | > 100 µM (inactive) | > 100 µM (inactive) | > 100 µM (inactive) |  | > 100 µM (inactive) | > 100 µM (inactive) | > 100 µM (inactive) | > 100 µM (inactive) | > 100 µM (inactive) | > 100 µM (inactive) | > 100 µM (inactive) | > 100 |  |  | > 100 µM (inactive)
17 | C=C1C[C@H]2C=Nc3cc(OCCCOc4cc5c(cc4OC)C(=O)N4CC(=C)C[C@H]4C=N5)c(OC)cc3C(=O)N2C1 [SJG-136] | 0.0124 µM (active) | 0.012 µM (active) |  | 0.0316 µM (active) | 0.0123 µM (active) | 0.0109 µM (active) | < 0.01 µM (active) | 0.0146 µM (active) |  |  | 0.0216 µM (active) | 0.0208 µM (active) | 0.0103 µM (active) | < 0.01 µM (active) | 0.0141 µM (active) | 0.124 | < 0.01 µM (active) | < 0.01 µM (active) | < 0.01 µM (active)
